In the supplement of paper PMC10331698:
± gives the standard deviation of the averaged measurements.

Assays:
Assay in all cases: level (log10 ratio to DMSO vehicle control); higher = higher biomarker level / cell amount than vehicle control
Conditions in all cases: in DMSO
[1] = compound: COC(=O)CCC(F)(F)C(F)(F)C(F)(F)C(F)(F)F [Methyl 2H,2H,3H,3H-perfluoroheptanoate]
Method: (§1)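 BioMAP Diversity Plus panel of 12 human primary cell co-culture systems (3C, 4H, LPS, SAg, BT, BF4T, BE3C, CASM3C, HDF3CGF, KF3CT, MyoF, Mphg). Compounds were added 1 h before stimulation and left for 24 h (MyoF 48 h; BT 72 h for soluble read-outs or 6 d for IgG). Biomarkers were read by ELISA, cytotoxicity by SRB, PBMC viability and proliferation by Alamar Blue. Each well value was divided by the mean of 8 DMSO control wells on the same plate and log10 transformed; duplicate blinded samples were tested at 4 concentrations.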

[2] = compound: FC(F)(F)C(F)(F)C(F)(F)C(F)(F)C(F)(F)C(F)(F)C(F)(F)C(F)(F)CCS [2-(Perfluorooctyl)ethanthiol]
Method: as §1

[3] = compound: NCC(F)(F)C(F)(F)C(F)(F)C(F)(F)C(F)(F)C(F)(F)C(F)(F)F [1H,1H-Perfluorooctylamine]
Method: as §1

[4] = compound: O=C(O)C(F)(F)C(F)(F)C(F)(F)F [Perfluorobutanoic acid]
Method: as §1

[5] = compound: O=C(O)C(F)(F)C(F)(F)C(F)(F)OC(F)(C(F)(F)F)C(F)(F)F [Perfluoro-4-isopropoxybutanoic acid]
Method: as §1

[6] = compound: O=C(O)C(F)(F)C(F)(F)OC(F)(F)F [Perfluoro-3-methoxypropanoic acid]
Method: as §1

[7] = compound: OCCC(F)(F)C(F)(F)C(F)(F)C(F)(F)C(F)(F)C(F)(F)F [6:2 Fluorotelomer alcohol]
Method: as §1

Row | Test System | level (log10) ([1]; 6700 nM) | level (log10) ([1]; 20000 nM) | level (log10) ([1]; 60000 nM) | level (log10) ([2]; 6700 nM) | level (log10) ([2]; 20000 nM) | level (log10) ([3]; 6700 nM) | level (log10) ([3]; 20000 nM) | level (log10) ([3]; 60000 nM) | level (log10) ([4]; 6700 nM) | level (log10) ([4]; 20000 nM) | level (log10) ([4]; 60000 nM) | level (log10) ([5]; 6700 nM) | level (log10) ([5]; 20000 nM) | level (log10) ([5]; 60000 nM) | level (log10) ([6]; 6700 nM) | level (log10) ([6]; 20000 nM) | level (log10) ([6]; 60000 nM) | level (log10) ([7]; 6700 nM) | level (log10) ([7]; 20000 nM)
1 | 4H:CCL26/Eotaxin-3 | -0.0075 ± 0.0064 | 0.0175 ± 0.0078 | 0.0025 ± 0.005 | 0.008 ± 0.017 | -0.0145 ± 0.0064 | 0.0225 ± 0.022 | 0.008 ± 0.0014 | 0.028 ± 0.023 | -0.0135 ± 0.016 | -0.007 ± 0.024 | 0.015 ± 0.018 | 0.0175 ± 0.042 | -0.023 ± 0.0057 | -0.0135 ± 0.00071 | -0.013 ± 0.013 | -0.0085 ± 0.019 | 0.021 ± 0.0099 | 0.0545 ± 0.013 | 0.016 ± 0.04
2 | BE3C:IL-1alpha | 0.014 ± 0.023 | -0.002 ± 0.013 | 0.025 ± 0.047 | -0.038 ± 0.0014 | -0.017 ± 0.016 | -0.002 ± 0.0028 | -0.0285 ± 0.016 | -0.01 ± 0.0014 | 0.007 ± 0.018 | 0.0155 ± 0.021 | 0.0225 ± 0.049 | 0.0065 ± 0.026 | 0.016 ± 0.02 | 0.0325 ± 0.00071 | 0.0105 ± 0.015 | 0.0235 ± 0.005 | 0.0355 ± 0.026 | 0.019 ± 0.016 | 0.008 ± 0.0057
3 | BT:sTNF-alpha | 0.0125 ± 0.042 | -0.105 ± 0.055 | 0.0165 ± 0.12 | 0.16 ± 0.015 | 0.065 ± 0.035 | 0.0435 ± 0.1 | 0.057 ± 0.023 | -0.0375 ± 0.076 | 0.019 ± 0.093 | 0.0875 ± 0.069 | 0.0305 ± 0.023 | -0.0005 ± 0.076 | 0.026 ± 0.083 | 0.085 ± 0.078 | 0.055 ± 0.035 | -0.0805 ± 0.084 | 0.0205 ± 0.17 | 0.071 ± 0.028 | -0.0445 ± 0.015
4 | 4H:CCL2/MCP-1 | -0.048 ± 0.033 | -0.0435 ± 0.025 | 0.0125 ± 0.023 | -0.02 ± 0.017 | 0.0395 ± 0.035 | 0.0075 ± 0.028 | -0.0195 ± 0.018 | 0.01 ± 0.044 | -0.0185 ± 0.012 | -0.05 ± 0.028 | 0.0005 ± 0.079 | 0 | -0.0255 ± 0.005 | 0.0155 ± 0.059 | -0.0045 ± 0.039 | -0.0095 ± 0.0092 | 0.003 | 0.009 ± 0.0085 | -0.0065 ± 0.018
5 | BT:sIL-2 | 0.017 ± 0.018 | -0.042 ± 0.037 | 0.027 ± 0.12 | 0.017 ± 0.016 | -0.0155 ± 0.071 | 0.034 ± 0.079 | 0.022 ± 0.0085 | -0.0465 ± 0.053 | -0.011 ± 0.0028 | 0.0285 ± 0.066 | 0.0095 ± 0.042 | 0.0175 ± 0.042 | 0.007 ± 0.016 | 0.0175 ± 0.035 | -0.002 ± 0.13 | -0.0015 ± 0.032 | 0.016 ± 0.0042 | -0.008 ± 0.057 | -0.0135 ± 0.019
6 | BF4T:CD90 | -0.009 ± 0.011 | -0.0045 ± 0.0064 | -0.032 ± 0.013 | -0.003 ± 0.0028 | -0.0065 ± 0.005 | 0.015 ± 0.021 | 0.009 ± 0.0014 | 0.0065 ± 0.012 | -0.001 ± 0.0028 | -0.0055 ± 0.00071 | -0.0075 ± 0.0078 | -0.002 ± 0.0057 | -0.025 ± 0.0028 | -0.0075 ± 0.012 | -0.012 ± 0.021 | -0.0165 ± 0.013 | -0.0095 ± 0.0035 | -0.0035 ± 0.0021 | -0.0165 ± 0.011
